Test system: RPE cells
Assay: Phagocytosis of RPE: FITC-ROS uptake, fluorescence intensity (total; ingestion with fluoro Quench dye)
Type: cell-based
Conditions: for effect on the total phagocytosis of RPE: 0.1, 1, 10, 100 μg/ml, 24 hrs treatment in 2% FCS DMEM, then FITC-ROS 4 hrs, compared with 2% FCS; for effect on the phagocytosis of RPE (total and ingestion, FIGS. 8-15): summary based on FIGS. 8-15
Protocol: 1×10^4 RPE cells are seeded in 96-well microplate per well, containing 5% FCS in DMEM after 48 hrs, and the medium is changed with 2% FCS in DMEM. Then different concentrations of DCMPbL6,7D2H2H3 are added respectively. After 24 hrs, 50 μl of 2×10^7 FITC-ROS/ml is added into each well. Four hours later, the unbounded FITC-ROS is washed out with PBS+2% sucrose. The emission wavelength is 485 nm and the detecting wavelength is 530 nm. The fluorescence intensity is detected by a 1420 Multilable counter (PE) measurement system. The detected fluorescence intensity represents the total phagocytosis. If the fluoro Quench dye is added, the detected fluorescence intensity represents the ingestion phagocytosis. *P<0.05, **P<0.02, ***P<0.01 and ****P<0.001 are obtained by comparing with phagocytosis of RPE treated with 2% FCS.
1×10^4 RPE cells are seeded in 96-well microplate per well, containing 5% FCS in DMEM after 48 hrs, and the medium is changed with 2% FCS in DMEM. Then different concentrations of DCMPbL6,7D2H2H3H2 are added respectively. After 24 hrs, 50 μl of 2×10^7 FITC-ROS/ml is added into each well. Four hours later, the unbounded FITC-ROS is washed out with PBS+2% sucrose. The emission wavelength is 485 nm and the detecting wavelength is 530 nm. The fluorescence intensity is detected by a 1420 Multilable counter (PE) measurement system. The detected fluorescence intensity represents the total phagocytosis. If the fluoro Quench dye is added, the detected fluorescence intensity represents the ingestion phagocytosis. *P<0.05, **P<0.02, ***P<0.01 and ****P<0.001 are obtained by comparing with phagocytosis of RPE treated with 2% FCS.
1×10^4 RPE cells are seeded in 96-well microplate per well, containing 5% FCS in DMEM after 48 hrs, and the medium is changed with 2% FCS in DMEM. Then different concentrations of DCMPbL6,7D2H2H3H3 are added respectively. After 24 hrs, 50 μl of 2×10^7 FITC-ROS/ml is added into each well. Four hours later, the unbounded FITC-ROS is washed out with PBS+2% sucrose. The emission wavelength is 485 nm and the detecting wavelength is 530 nm. The fluorescence intensity is detected by a 1420 Multilable counter (PE) measurement system. The detected fluorescence intensity represents the total phagocytosis. If the fluoro Quench dye is added, the detected fluorescence intensity represents the ingestion phagocytosis. *P<0.05, **P<0.02, ***P<0.01 and ****P<0.001 are obtained by comparing with phagocytosis of RPE treated with 2% FCS.
1×10^4 RPE cells are seeded in 96-well microplate per well, containing 5% FCS in DMEM after 48 hrs, and the medium is changed with 2% FCS in DMEM. Then different concentrations of DCMPbL6,7D2H2H3H4 are added respectively. After 24 hrs, 50 μl of 2×10^7 FITC-ROS/ml is added into each well.

Row | SMILES | effect on the total phagocytosis of RPE | effect on the phagocytosis of RPE (total and ingestion, FIGS. 8-15)
1 | O=c1cc(-c2ccc(O)cc2)oc2c([C@@H]3OC[C@H](O)[C@H](O)[C@H]3O)c(O)c([C@@H]3OC[C@@H](O)[C@H](O)[C@H]3O)c(O)c12 [DCMPbL6,7D2H2H3H2, apigenin 6-C-β-D-Xylopyranosyl-8-C-α-L-arabinopyranoside] | can accelerate the phagocytosis of RPE | could accelerate the phagocytosis of RPE
2 | O=c1cc(-c2ccc(O)cc2)oc2c([C@@H]3OC[C@H](O)[C@H](O)[C@H]3O)c(O)c([C@@H]3OC[C@H](O)[C@H](O)[C@H]3O)c(O)c12 [DCMPbL6,7D2H2H3H3, apigenin 6,8-Di-C-α-L-arabinopyranoside] | can accelerate the phagocytosis of RPE | could accelerate the phagocytosis of RPE
3 | O=c1cc(-c2ccc(O)cc2)oc2c([C@@H]3OC[C@@H](O)[C@@H](O)[C@@H]3O)c(O)c([C@@H]3OC[C@H](O)[C@H](O)[C@H]3O)c(O)c12 [DCMPbL6,7D2H2H3H4, apigenin 6-C-α-L-Arabinopyranosyl-8-C-β-D-arabinopyranoside] | can accelerate the phagocytosis of RPE | could accelerate the phagocytosis of RPE
